Experimental data reported in paper PMC8308845, “Discovery of Novel Chemical Series of OXA-48 β-Lactamase Inhibitors by High-Throughput Screening” (Pharmaceuticals, 2021).
Converted amounts (≈) assume the structure as drawn.

Key:
[1] = system: HepG2 cells; assay: Cytotoxicity assay (cell viability, alamarBlue); format: cell-based; conditions: 48 h incubation, dose response
Description: (§1) Based on the promising BLI profile of compound ID2, a preliminary in vitro ADMET assessment in terms of kinetic solubility and cytotoxicity was carried out. […] Also, it was tested for cell viability in dose response against HepG2 cells, following 48 h incubation time.
Compound ID2 was tested in cell viability assays with HepG2 cells. The viability of cultured cells was evaluated using alamarBlue staining as described by Nociari et al.. Concentration–response curves were prepared for each compound by testing eight concentrations in triplicate with three-fold dilutions starting from 100 µM to […]. After incubation for 48 h at 37 °C, the percentage of control activity was calculated by comparing the fluorescence reading in the presence of the test compound to that in the absence of a test compound (control). IC50 values were determined by non-linear regression analysis of the concentration–response curves. These parameters were obtained by Hill equation curve fitting. Chlorpromazine was used as a reference compound.

[2] = system: E. coli ATCC25922; assay: MIC by broth microdilution, antibiotic-sensitive strain; format: cell-based; conditions: Escherichia coli, no β-lactam, BLI tested at 32 µg/mL, read-out: MIC, BLI alone
From the text: (§2) To evaluate the capability of restoring β-lactam susceptibility, the two most promising representatives of SC_2 (ID3) and SC_7 (ID2) were screened alone and in combination with ampicillin (AMP) and IMP against sensitive and resistant Gram-negative bacteria. Avibactam and tazobactam were also included in the MIC characterization as BLI reference compounds. Specifically, we used E. coli ATCC25922 as antibiotic-sensitive strain, while E. coli ATCC BAA-2523 and K. pneumoniae ATCC BAA-2524 as β-lactam-resistant bacteria, producing OXA-48 carbapenemase.
(§3) Test compounds and tazobactam were tested at 32 µg/mL, while avibactam was applied at 4 µg/mL. […] Both antibiotics were selected for the combination study as they can be hydrolyzed by the target OXA-48 enzyme.
(§4) MIC values were determined by the broth dilution method and interpreted using published guidelines described by Clinical and Laboratory Standards Institute (CLSI).
(§5) All BLIs were dissolved in 100% DMSO and they were tested at a fixed concentration of 32 µg/mL and 1% of DMSO final concentration. Avibactam was used as reference β-lactamase inhibitor. All antimicrobials were prepared in line with CLSI susceptibility testing standards. AMP (USP # 1033000; batch no. K1M493) was dissolved at 5.12 mg/mL, IMP (USP # 1337809; batch no. R038R0) and avibactam (Biochem # NXL 104; batch no. 20180726) were dissolved at 1.28 mg/mL in the respective solvents recommended by CLSI (2). Solutions at 4X the final concentrations of the test range were made in Cation adjusted Mueller-Hinton broth (CA-MHB, BD # 212322; batch no. 6117994; Expiry date: 29.02.2020) by serial dilutions, and then diluted 2-fold with CA-MHB (for antimicrobials alone), or with the BLIs/avibactam (for combinations of new/reference inhibitors and antimicrobials). Moreover, all BLIs were tested alone at a fixed concentration of 32 μg/mL. The final concentration of DMSO in the test tubes was 1% for each different combination.
(§6) 50 μL of each well were then transferred from the masterblock into 96-well plates to whom were then added 50 μL of the final inoculum. MIC tests were performed by broth microdilution in line with CLSI susceptibility testing standards. Bacterial inocula were prepared at ca. 1 × 10^6 CFU/mL by diluting 100-fold a 0.5 McFarland suspension in CA-MHB with TES (TREK Diagnostic Systems, Product code: T3462; Batch: 356347; Expiry date: 12-Jun-2019). 50 μL of antibacterial solutions at 2 × the final concentrations were diluted 2-fold with 50 μL of inoculum to give a final inoculum of ca. 5 × 10^5 CFU/mL and desired test concentrations of antibacterial agents. Test plates were incubated according to CLSI guidelines and read visually. MIC values corresponded to the first well with no visible growth.

[3] = system: E. coli ATCC BAA-2523; assay: MIC by broth microdilution, β-lactam-resistant strain producing OXA-48; format: cell-based, Escherichia coli; conditions: Escherichia coli, ATCCBAA2523, no β-lactam, BLI tested at 32 µg/mL, read-out: MIC, BLI alone
From the text: as §2, §3, §4, §5, §6

[4] = Aqueous solubility assay (PBS, pH 7.4); format: physicochemical; conditions: isotonic buffer pH 7.4, aqueous buffer, kinetic from dmso stock, buffered aqueous solution at pH 7.4, 200 μM nominal, 2% DMSO, room temperature
Description: as §1
Compound was dissolved in DMSO as stock solution and then added to isotonic buffer (pH 7.4) at a concentration of 200 μM (2% DMSO final concentration). After a 24 h incubation under shaking at room temperature, dissolved compound is measured by a chromatographic procedure with photodiode array detection. Metoprolol tartrate, rifampicin, ketoconazole, phenytoin, haloperidol, simvastatin, diethylstilbestrol, and tamoxifen were used as reference compounds for different solubility degrees.

SMILES | cytotoxicity (no sign of toxicity up to the highest tested concentration) [1] | MIC [2] | MIC [3] | solubility kinetic at 24 h [4]
CCc1ccc(-c2n[nH]c3nc(-c4ccc(C(=O)O)cc4)cc(C(=O)O)c23)cc1 [ID2] | > 100 µM | > 32 µg/mL | > 32 µg/mL | 179 µM (≈ 69.5 µg/mL)
C[C@]1(Cn2ccnn2)[C@H](C(=O)O)N2C(=O)C[C@H]2S1(=O)=O [tazobactam, reference compound] |  |  | > 32 µg/mL | 
